Experimental findings from patent publication US7371813B2, “Method for use of IGF-binding protein for selective sensitization of target cells in vivo” (Bioexpertise LLC, priority 2000, dated 2008) are described below.

One experiment has as its system MDA-MB-231 tumors. Nature of the experiment: MDA-MB-231 mammary tumors implanted SC in nude mice, tumor growth. The following applies: for Median tumor volume, day 15: Day 15 post-implant (treatment start); for Median tumor volume, day 15 / Days Delay in tumor growth: MDA-MB-231, nude mice; for Median tumor volume, day 19: Day 19 post-implant; for Median tumor volume, day 22: Day 22 post-implant; for Median tumor volume, day 26: Day 26 post-implant; for Median tumor volume, day 29: Day 29 post-implant; for Median tumor volume, day 33: Day 33 post-implant; for Tumor growth, difference from control: statistical comparison with the control group; for Days Delay in tumor growth: endpoint of 3× doubling of tumor weight. It is filed as in vivo. As for the experimental part: MDA-MB-231 tumors were implanted in nude mice. Ten animals (NCr-nu) were allocated to each group. The tumors were implanted SC as trocar fragments and allowed to increase in size to approximately 170 mg before treatment began on Day 15 post-implant. The treatment regimen for [N109D]-IGFBP-3 was 4.0 mg/kg/dose, daily for 21 days, SC beginning on Day 15. The treatment regimen for Taxol was 5.0 mg/kg/day, daily for five days, IV. The treatment regimen for Cisplatin was 4.0 mg/kg/dose, administered every fourth day for three treatments, IP. Treatment regimens for TAXOL® and Cisplatin began on Day 18. Tumor measurements were performed daily.

In experiment [1] the test system is 1,176 mouse gene sequences. Nature of the experiment: Gene array analysis (Atlas 1.2k-I mouse gene arrays) of 16C tumor tissue. In kind it is in vivo. As for the experimental part: (§1) In order to gain further insights into the mechanism of action of exogenously added IGFBP-3 in these mouse models, tumor tissues from the groups treated with vehicle, doxorubicin, or doxorubicin plus IGFBP-3, were further analyzed using gene array technology. RNA was extracted from tumor tissue. cDNA was prepared, labelled and used to probe Atlas 1.2k-I mouse gene arrays (Clontech Laboratories Inc., Palo Alto, Calif.). These arrays contain 1,176 mouse gene sequences.

The next experiment deals with RXR-alpha. As to the kind of experiment: RXR-alpha levels in 16C tumor tissue (gene array). Particulars: 16C tumors from treated animals. In kind it is in vivo, mouse. As for the experimental part:
as §1

Experiment [2] deals with 16C mammary adenocarcinoma. Nature of the experiment: 16C mammary adenocarcinoma SC tumor implants in C3H mice, tumor growth. In kind it is in vivo. The following applies: for Days Delay in tumor growth: endpoint of 1500 mg tumor weight, 16C tumors, C3H mice. As for the experimental part: Female C3H mice (8-11 animals per group) received early SC implants of 16C mammary adenocarcinoma tumor fragments (near 100% “take”) and were treated with vehicle, [N109D]-IGFBP-3 (4 mg/kg/day SC ×21), 5-FU (10 mg/kg/day IP ×5), adriamycin (2 mg/kg/dose IV on day 1 and day 8 post-implant), or the indicated combinations. Tumors were measured twice weekly. Animals were sacrificed at Day 21. The doses of doxorubicin and 5-fluorouracil used in this experiment were chosen to be marginally effective, based on previous experience with these chemical agents in this model. […] The results are shown graphically in FIG. 2.

The test system of the next experiment is tumor growth. Nature of the experiment: Systemic IGFBP-3 alone in animal models of cancer, tumor growth. Particulars: 4 mg/kg for 21 days, more than one animal model of cancer. In kind it is in vivo. As for the experimental part:
This was surprising because it was believed that IGFBP-3 alone could cause the death of some tumor cells. The dose chosen is likely to be close to the maximum practicable dose that would be systemically delivered in a human clinical setting. The maximum practicable dose is determined by the cost, pharmacokinetics, toxicology, solubility of the formulation, route of administration, and other practical considerations.

Marks after values point to notes of the source that are not given here.

Take `N.N.[Cl][Pt][Cl]` [CISPLATIN, cisplatin]: in the experiment with MDA-MB-231 tumors, the “Median tumor volume, day 15” value was 171 ± 33 milligrams; the “Median tumor volume, day 19” value came out at 368 ± 124 milligrams; the “Median tumor volume, day 22” value came out at 446 ± 175 milligrams; the “Median tumor volume, day 26” value turned out to be 563 ± 214 milligrams. In addition, in the experiment on MDA-MB-231 tumors, the “Median tumor volume, day 29” value is reported as 675 ± 220 milligrams; the “Median tumor volume, day 33” value turned out to be 922 ± 299 milligrams; the “Tumor growth, difference from control” value is “significantly different from control”.

For `COc1cccc2c1C(=O)c1c(O)c3c(c(O)c1C2=O)C[C@@](O)(C(=O)CO)C[C@@H]3O[C@H]1C[C@H](N)[C@H](O)[C@H](C)O1` [ADRIAMYCIN ®, doxorubicin], the “Number of down-regulated genes” value in experiment [1] (among the differentially expressed genes) was 16 genes. Also, in experiment [1] (of 1,176 gene sequences), the “Number of differentially expressed genes” value was determined as 26 genes and the “Share of genes differentially expressed” value was found to be 2%. Also, the “Inhibition of RXR-alpha levels in tumors” value with RXR-alpha is reported as “not”. Also, the “Days Delay in tumor growth” value in experiment [2] is on record as “+2.5* days”.

Regarding `CC(=O)O[C@H]1C(=O)[C@@]2(C)[C@H]([C@H](OC(=O)c3ccccc3)[C@]3(O)C[C@H](OC(=O)[C@H](O)[C@@H](NC(=O)c4ccccc4)c4ccccc4)C(C)=C1C3(C)C)[C@]1(OC(C)=O)CO[C@@H]1C[C@@H]2O` [TAXOL ®, paclitaxel], in the experiment with MDA-MB-231 tumors, the “Median tumor volume, day 15” value was 153 ± 32 milligrams; the “Median tumor volume, day 19” value turned out to be 327 ± 131 milligrams; the “Median tumor volume, day 22” value was found to be 384 ± 337 milligrams; the “Median tumor volume, day 26” value came out at 512 ± 489 milligrams. In the experiment with MDA-MB-231 tumors, the “Median tumor volume, day 29” value worked out at 648 ± 538 milligrams; the “Median tumor volume, day 33” value is recorded as 900 ± 1067 milligrams; the “Days Delay in tumor growth” value is “+3.5 days”; the “Tumor growth, difference from control” value was “significantly different from control”.

Regarding `O=c1[nH]cc(F)c(=O)[nH]1` [5-FLUOROURACIL, 5-fluorouracil], in experiment [2], the “Days Delay in tumor growth” value is on record as “+1.9 days”.

Consider “[N109D]-IGFBP-3: derivative of IGFBP-3 that has an amino acid sequence alteration at position 109 of the mature sequence”, for which the entries for the “Days Delay in tumor growth” value (in the experiment on MDA-MB-231 tumors; in experiment [2]) were -2.2 days and -0.2 days, respectively. For the same molecule, the “Tumor growth, difference from control” value with MDA-MB-231 tumors was “not significantly different from control”. For the same molecule, the “Effect on tumor growth on its own” value in experiment [2] (4 mg/kg/day SC ×21) was “no measurable effects”. For the same molecule, the “Potentiation of the effects of co-administered doxorubicin and 5-fluorouracil” value in experiment [2] (4 mg/kg/day SC ×21 with marginally effective doses of the agents) is given as “significantly (p<0.01) potentiated the effects of both agents”.

Take “IGFBP-3: insulin-like growth factor binding protein 3; in Table 2 the group received [N109D]-IGFBP-3”: the “Slowing of tumor growth by IGFBP-3 alone” value in the experiment with tumor growth was “completely ineffective”. Further, in the experiment on MDA-MB-231 tumors, the “Median tumor volume, day 15” value turned out to be 161 ± 35 milligrams; the “Median tumor volume, day 19” value came to 367.5 ± 244 milligrams; the “Median tumor volume, day 22” value was determined as 565 ± 510 milligrams; the “Median tumor volume, day 26” value is reported as 818.5 ± 750 milligrams. Further, in the experiment on MDA-MB-231 tumors, the “Median tumor volume, day 29” value is reported as 1089 ± 851 milligrams and the “Median tumor volume, day 33” value is 1936 ± 1825 milligrams.
